Here are results for one molecule from ChEMBL document CHEMBL5316291 (J Med Chem, 2023).

Series [1] addresses T1, Poly [ADP-ribose] polymerase tankyrase-1 (Homo sapiens, UniProt O95271).
T1 sequence (O95271 whole entry): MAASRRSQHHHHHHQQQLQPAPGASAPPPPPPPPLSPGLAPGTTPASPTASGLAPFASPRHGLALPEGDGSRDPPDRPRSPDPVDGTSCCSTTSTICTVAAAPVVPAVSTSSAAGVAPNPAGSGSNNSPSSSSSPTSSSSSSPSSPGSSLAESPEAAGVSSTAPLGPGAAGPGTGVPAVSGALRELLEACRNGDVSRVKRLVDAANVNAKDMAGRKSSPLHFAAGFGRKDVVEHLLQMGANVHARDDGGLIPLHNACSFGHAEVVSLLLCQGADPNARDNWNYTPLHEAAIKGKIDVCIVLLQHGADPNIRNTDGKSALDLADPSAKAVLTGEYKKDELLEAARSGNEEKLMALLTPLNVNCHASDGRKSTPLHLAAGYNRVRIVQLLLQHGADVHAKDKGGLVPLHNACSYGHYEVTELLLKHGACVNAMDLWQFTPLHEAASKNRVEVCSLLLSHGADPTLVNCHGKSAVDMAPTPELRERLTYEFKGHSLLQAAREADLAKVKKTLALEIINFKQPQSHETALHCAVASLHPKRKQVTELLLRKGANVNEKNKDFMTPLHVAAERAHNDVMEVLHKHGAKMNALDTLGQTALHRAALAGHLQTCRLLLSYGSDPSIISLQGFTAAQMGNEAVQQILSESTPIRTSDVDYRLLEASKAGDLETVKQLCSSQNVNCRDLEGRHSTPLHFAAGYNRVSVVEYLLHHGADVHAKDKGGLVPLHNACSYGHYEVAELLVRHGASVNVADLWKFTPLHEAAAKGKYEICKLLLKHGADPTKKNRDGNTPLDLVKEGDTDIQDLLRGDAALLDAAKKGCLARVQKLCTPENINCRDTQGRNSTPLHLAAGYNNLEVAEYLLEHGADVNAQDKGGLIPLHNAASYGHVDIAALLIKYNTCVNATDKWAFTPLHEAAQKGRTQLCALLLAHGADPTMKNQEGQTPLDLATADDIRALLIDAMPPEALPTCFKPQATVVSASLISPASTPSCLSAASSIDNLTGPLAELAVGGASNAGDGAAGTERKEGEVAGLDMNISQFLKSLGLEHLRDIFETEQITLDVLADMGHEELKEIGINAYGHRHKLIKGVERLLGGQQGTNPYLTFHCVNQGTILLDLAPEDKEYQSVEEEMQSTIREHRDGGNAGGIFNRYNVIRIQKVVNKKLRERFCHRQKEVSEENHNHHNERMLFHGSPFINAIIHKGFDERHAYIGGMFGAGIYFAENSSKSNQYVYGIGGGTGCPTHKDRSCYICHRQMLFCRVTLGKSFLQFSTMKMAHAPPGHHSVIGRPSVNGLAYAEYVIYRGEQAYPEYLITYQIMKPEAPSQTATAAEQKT
As to the kind of experiment: Inhibition of human recombinant N-terminal GST-tagged PARP5a (1001 to 1327 end residues) expressed in baculovirus infected Sf9 cells expression system incubated for 1 hr by ELISA assay.

Series [2] has as its target T2, Protein mono-ADP-ribosyltransferase TIPARP (Homo sapiens, UniProt Q7Z3E1).
T2 sequence (Q7Z3E1 whole entry): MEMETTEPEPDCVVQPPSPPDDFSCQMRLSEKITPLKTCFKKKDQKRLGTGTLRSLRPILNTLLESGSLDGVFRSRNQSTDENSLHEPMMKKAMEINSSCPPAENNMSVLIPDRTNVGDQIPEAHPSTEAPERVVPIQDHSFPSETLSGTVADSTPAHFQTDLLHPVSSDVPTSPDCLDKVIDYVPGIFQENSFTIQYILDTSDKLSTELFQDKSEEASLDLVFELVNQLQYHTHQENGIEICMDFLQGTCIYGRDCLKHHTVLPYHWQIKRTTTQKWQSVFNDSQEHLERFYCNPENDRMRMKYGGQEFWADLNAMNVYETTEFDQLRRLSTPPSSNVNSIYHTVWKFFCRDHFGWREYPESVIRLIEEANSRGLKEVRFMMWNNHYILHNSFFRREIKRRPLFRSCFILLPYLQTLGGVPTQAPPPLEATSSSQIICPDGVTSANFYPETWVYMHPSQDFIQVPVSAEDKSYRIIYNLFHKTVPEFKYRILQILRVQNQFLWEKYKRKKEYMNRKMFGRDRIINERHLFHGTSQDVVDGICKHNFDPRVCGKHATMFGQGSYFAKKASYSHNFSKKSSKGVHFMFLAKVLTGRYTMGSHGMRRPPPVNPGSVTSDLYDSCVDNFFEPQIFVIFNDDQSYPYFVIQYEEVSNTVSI
As to the kind of experiment: Inhibition of human recombinant N-terminal FLAG-tagged PARP7 (400 to 657 end residues) incubated for 1 hr by ELISA assay.

Series [3] concerns the target T3, Protein mono-ADP-ribosyltransferase PARP11 (Homo sapiens, UniProt Q9NR21).
T3 sequence (Q9NR21 whole entry): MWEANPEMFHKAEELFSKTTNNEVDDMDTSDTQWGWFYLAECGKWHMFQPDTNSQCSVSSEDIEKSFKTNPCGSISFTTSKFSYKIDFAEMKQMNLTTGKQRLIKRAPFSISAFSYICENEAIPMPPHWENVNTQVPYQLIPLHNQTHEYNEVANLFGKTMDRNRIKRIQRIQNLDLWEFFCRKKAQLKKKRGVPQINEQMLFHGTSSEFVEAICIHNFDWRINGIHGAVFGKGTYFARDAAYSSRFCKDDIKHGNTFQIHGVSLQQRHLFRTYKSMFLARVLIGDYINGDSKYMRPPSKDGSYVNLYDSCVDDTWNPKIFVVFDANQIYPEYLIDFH
The experiment in a line: Inhibition of human recombinant N-terminal GST-tagged / C-terminal His-tagged PARP11 (8 to 338 end residues) expressed in baculovirus infected Sf9 cells expression system incubated for 1 hr by ELISA assay.

Series [4] in a line: Half life in ICR mouse at 1 mg/kg, iv measured upto 24 hrs by LC-MS/MS analysis. Format: ADME, organism-based. The settings on record: in vivo.
A short description of series [5]: Apparent volume of distribution in ICR mouse at 10 mg/kg, po measured upto 24 hrs by LC-MS/MS analysis. Format: ADME, organism-based. The settings on record: in vivo.
The test system of series [6] is CT26. The experiment in a line: Antitumor activity against mouse CT26 cells xenografted in BALB/c mouse assessed as tumor growth inhibition at 100 mg/kg, po bid measured for 14 days. Format: functional. Particulars: CT26, 336 h, time 14 day, read-out: TGI.
In series [7] the test system is CT26. As to the kind of experiment: Antitumor activity against mouse CT26 cells xenografted in BALB/c mouse assessed as tumor growth inhibition at 50 mg/kg, po bid measured for 14 days. It counts as functional. Particulars: CT26, 336 h, time 14 day, read-out: TGI.
In series [8] the test system is CT26. As to the kind of experiment: Antitumor activity against mouse CT26 cells implanted in po dosed BALB/c mouse assessed as increase in CXCL10 levels measured after 14 days by RT-qPCR analysis. It counts as functional, organism-based. The settings on record: dose 25-100 mg/kg, time 14.0 day. On the technique in general: Quantitative PCR measures a nucleic acid by following its amplification.

In series [9] the test system is CT26. The experiment in a line: Antitumor activity against mouse CT26 cells implanted in BALB/c mouse assessed as increase in infiltration of CD3 positive CD4 positive T lymphocytes in tumors at 50 mg/kg, po measured after 14 days by flow cytometry (reference value: 7.95%). Format: functional. The settings on record: time 14 day. A general note: A flow cytometer gives signals particle by particle.

A further series concerns NCI-H1373. The experiment in a line: cells. The settings on record: Homo sapiens, NCI-H1373, 144 h.

Each structure is given as a SMILES string.

The term IC50 denotes the concentration that gives 50% inhibition. In the case of `C[C@@H](CN1CC(C(=O)N2CCN(c3ncc(C(F)(F)F)cn3)CC2)C1)Nc1cn[nH]c(=O)c1C(F)(F)F`, the IC50 in [1] amounted to 174 nM; in series [2] it was 7.6 nM; in [3] it was 32200 nM; with NCI-H1373 it was 1090 nM. Besides, the t1/2 in series [4] came out at 1.44 h. Moreover, the Vz in [5] was 4.5836 L/kg. In the series on CT26 [6], the inhibition in vivo at 100 mg/kg is 67%. The inhibition in vivo at 50 mg/kg with CT26 [7] was 46%. Moreover, the Activity entry was “Dose-Dependent Effect” with CT26 [8] and 63.1% in the series with CT26 [9].
